{"source": "ChEMBL document CHEMBL4219271", "about": "“Synthesis and anti-proliferative activity of allogibberic acid derivatives containing 1,2,3-triazole pharmacophore” (Bioorg Med Chem Lett, 2018)", "key": {"SMMC-7721 [1]": {"tested_on": "SMMC-7721", "experiment": "Cell cycle arrest in human SMMC7721 cells assessed as accumulation at G0/G1 phase at 1.7 uM after 24 hrs by propidium iodide staining based flow cytometry (reference value: 77.85 +/- 1.90%)", "format": "functional"}, "SW480 [2]": {"tested_on": "SW480", "experiment": "Potency index, ratio of cisplatin IC50 to compound IC50 for human SW480 cells", "format": "functional"}, "HL-60": {"tested_on": "HL-60", "experiment": "Cytotoxicity against human HL60 cells assessed as decrease in cell viability after 4 days by MTT assay", "format": "functional, cell-based", "settings": "HL-60, 96 h"}, "SMMC-7721 [3]": {"tested_on": "SMMC-7721", "experiment": "Cell cycle arrest in human SMMC7721 cells assessed as accumulation at G0/G1 phase at 0.425 uM after 24 hrs by propidium iodide staining based flow cytometry (reference value: 77.85 +/- 1.90%)", "format": "functional"}, "SMMC-7721 [4]": {"tested_on": "SMMC-7721", "experiment": "Induction of apoptosis in human SMMC7721 cells assessed as late apoptotic cells at 0.425 uM after 48 hrs by Annexin V-FITC/PI double staining based flow cytometry (reference value: 0%)", "format": "functional"}, "SMMC-7721 [5]": {"tested_on": "SMMC-7721", "experiment": "Cell cycle arrest in human SMMC7721 cells assessed as accumulation at S phase after 24 hrs by propidium iodide staining based flow cytometry", "format": "functional"}, "SMMC-7721 [6]": {"tested_on": "SMMC-7721", "experiment": "Induction of apoptosis in human SMMC7721 cells assessed as necrotic cells at 1.7 uM after 48 hrs by Annexin V-FITC/PI double staining based flow cytometry (reference value: 0%)", "format": "functional"}, "SMMC-7721 [7]": {"tested_on": "SMMC-7721", "experiment": "Cell cycle arrest in human SMMC7721 cells assessed as accumulation at G2/M phase at 1.7 uM after 24 hrs by propidium iodide staining based flow cytometry (reference value: 5.72 +/- 0.59%)", "format": "functional"}, "SMMC-7721 [8]": {"tested_on": "SMMC-7721", "experiment": "Induction of apoptosis in human SMMC7721 cells assessed as late apoptotic cells at 0.85 uM after 48 hrs by Annexin V-FITC/PI double staining based flow cytometry (reference value: 0%)", "format": "functional"}, "MCF7": {"tested_on": "MCF7", "experiment": "Cytotoxicity against human MCF7 cells assessed as decrease in cell viability after 4 days by MTT assay", "format": "functional, cell-based", "settings": "MCF7, 96 h"}, "SMMC-7721 [9]": {"tested_on": "SMMC-7721", "experiment": "Cell cycle arrest in human SMMC7721 cells assessed as accumulation at G0/G1 phase at 0.85 uM after 24 hrs by propidium iodide staining based flow cytometry (reference value: 77.85 +/- 1.90%)", "format": "functional"}, "SMMC-7721 [10]": {"tested_on": "SMMC-7721", "experiment": "Cell cycle arrest in human SMMC7721 cells assessed as accumulation at G2/M phase at 3.4 uM after 24 hrs by propidium iodide staining based flow cytometry (reference value: 5.72 +/- 0.59%)", "format": "functional"}, "SMMC-7721 [11]": {"tested_on": "SMMC-7721", "experiment": "Induction of apoptosis in human SMMC7721 cells assessed as early apoptotic cells at 0.425 uM after 48 hrs by Annexin V-FITC/PI double staining based flow cytometry (reference value: 0.035%)", "format": "functional"}, "SMMC-7721 [12]": {"tested_on": "SMMC-7721", "experiment": "Induction of apoptosis in human SMMC7721 cells assessed as viable cells at 1.7 uM after 48 hrs by Annexin V-FITC/PI double staining based flow cytometry (reference value: 100%)", "format": "functional", "settings": "SMMC-7721, 48 h, read-out: Activity"}, "SMMC-7721 [13]": {"tested_on": "SMMC-7721", "experiment": "Induction of apoptosis in human SMMC7721 cells assessed as early apoptotic cells at 1.7 uM after 48 hrs by Annexin V-FITC/PI double staining based flow cytometry (reference value: 0.035%)", "format": "functional"}, "SMMC-7721 [14]": {"tested_on": "SMMC-7721", "experiment": "Cell cycle arrest in human SMMC7721 cells assessed as accumulation at G2/M phase at 0.425 uM after 24 hrs by propidium iodide staining based flow cytometry (reference value: 5.72 +/- 0.59%)", "format": "functional"}, "A549": {"tested_on": "A549", "experiment": "Cytotoxicity against human A549 cells assessed as decrease in cell viability after 4 days by MTT assay", "format": "functional, cell-based", "settings": "A549, 96 h"}, "SMMC-7721 [15]": {"tested_on": "SMMC-7721", "experiment": "Cytotoxicity against human SMMC7721 cells assessed as decrease in cell viability after 4 days by MTT assay", "format": "functional, cell-based", "settings": "SMMC-7721, 96 h"}, "SMMC-7721 [16]": {"tested_on": "SMMC-7721", "experiment": "Induction of apoptosis in human SMMC7721 cells assessed as early apoptotic cells at 3.4 uM after 48 hrs by Annexin V-FITC/PI double staining based flow cytometry (reference value: 0.035%)", "format": "functional"}, "SMMC-7721 [17]": {"tested_on": "SMMC-7721", "experiment": "Induction of apoptosis in human SMMC7721 cells assessed as late apoptotic cells at 1.7 uM after 48 hrs by Annexin V-FITC/PI double staining based flow cytometry (reference value: 0%)", "format": "functional"}, "SMMC-7721 [18]": {"tested_on": "SMMC-7721", "experiment": "Induction of apoptosis in human SMMC7721 cells assessed as viable cells at 3.4 uM after 48 hrs by Annexin V-FITC/PI double staining based flow cytometry (reference value: 100%)", "format": "functional", "settings": "SMMC-7721, 48 h, read-out: Activity"}, "SMMC-7721 [19]": {"tested_on": "SMMC-7721", "experiment": "Induction of apoptosis in human SMMC7721 cells assessed as necrotic cells at 3.4 uM after 48 hrs by Annexin V-FITC/PI double staining based flow cytometry (reference value: 0%)", "format": "functional"}, "SMMC-7721 [20]": {"tested_on": "SMMC-7721", "experiment": "Cell cycle arrest in human SMMC7721 cells assessed as accumulation at S phase at 1.7 uM after 24 hrs by propidium iodide staining based flow cytometry (reference value: 13.71 +/- 0.62%)", "format": "functional"}, "SMMC-7721 [21]": {"tested_on": "SMMC-7721", "experiment": "Induction of apoptosis in human SMMC7721 cells assessed as viable cells at 0.425 uM after 48 hrs by Annexin V-FITC/PI double staining based flow cytometry (reference value: 100%)", "format": "functional", "settings": "SMMC-7721, 48 h, read-out: Activity"}, "SMMC-7721 [22]": {"tested_on": "SMMC-7721", "experiment": "Induction of apoptosis in human SMMC7721 cells assessed as early apoptotic cells at 0.85 uM after 48 hrs by Annexin V-FITC/PI double staining based flow cytometry (reference value: 0.035%)", "format": "functional"}, "SMMC-7721 [23]": {"tested_on": "SMMC-7721", "experiment": "Induction of apoptosis in human SMMC7721 cells assessed as late apoptotic cells at 3.4 uM after 48 hrs by Annexin V-FITC/PI double staining based flow cytometry (reference value: 0%)", "format": "functional"}, "SMMC-7721 [24]": {"tested_on": "SMMC-7721", "experiment": "Induction of apoptosis in human SMMC7721 cells assessed as viable cells at 0.85 uM after 48 hrs by Annexin V-FITC/PI double staining based flow cytometry (reference value: 100%)", "format": "functional", "settings": "SMMC-7721, 48 h, read-out: Activity"}, "SMMC-7721 [25]": {"tested_on": "SMMC-7721", "experiment": "Cell cycle arrest in human SMMC7721 cells assessed as accumulation at S phase at 3.4 uM after 24 hrs by propidium iodide staining based flow cytometry (reference value: 13.71 +/- 0.62%)", "format": "functional"}, "SMMC-7721 [26]": {"tested_on": "SMMC-7721", "experiment": "Cell cycle arrest in human SMMC7721 cells assessed as accumulation at G0/G1 phase at 3.4 uM after 24 hrs by propidium iodide staining based flow cytometry (reference value: 77.85 +/- 1.90%)", "format": "functional"}, "SW480 [27]": {"tested_on": "SW480", "experiment": "Cytotoxicity against human SW480 cells assessed as decrease in cell viability after 4 days by MTT assay", "format": "functional, cell-based", "settings": "SW480, 96 h"}, "SMMC-7721 [28]": {"tested_on": "SMMC-7721", "experiment": "Induction of apoptosis in human SMMC7721 cells assessed as necrotic cells at 0.425 uM after 48 hrs by Annexin V-FITC/PI double staining based flow cytometry (reference value: 0%)", "format": "functional"}, "SMMC-7721 [29]": {"tested_on": "SMMC-7721", "experiment": "Cell cycle arrest in human SMMC7721 cells assessed as accumulation at G2/M phase at 0.85 uM after 24 hrs by propidium iodide staining based flow cytometry (reference value: 5.72 +/- 0.59%)", "format": "functional"}, "SMMC-7721 [30]": {"tested_on": "SMMC-7721", "experiment": "Induction of apoptosis in human SMMC7721 cells assessed as necrotic cells at 0.85 uM after 48 hrs by Annexin V-FITC/PI double staining based flow cytometry (reference value: 0%)", "format": "functional"}, "SMMC-7721 [31]": {"tested_on": "SMMC-7721", "experiment": "Cell cycle arrest in human SMMC7721 cells assessed as accumulation at S phase at 0.425 uM after 24 hrs by propidium iodide staining based flow cytometry (reference value: 13.71 +/- 0.62%)", "format": "functional"}, "SMMC-7721 [32]": {"tested_on": "SMMC-7721", "experiment": "Cell cycle arrest in human SMMC7721 cells assessed as accumulation at S phase at 0.85 uM after 24 hrs by propidium iodide staining based flow cytometry (reference value: 13.71 +/- 0.62%)", "format": "functional"}}}
{"smiles": "C=C1C(=O)[C@]23C[C@@]1(O)CC[C@H]2c1ccc(O)c(C)c1[C@@H]3Cn1cc(-c2ccc(F)cc2)nn1", "values": [{"measurement": "Activity", "setting": "SMMC-7721 [1]", "value": 70.87, "unit": "%"}, {"measurement": "Ratio IC50", "setting": "SW480 [2]", "value": 33}, {"measurement": "IC50", "setting": "HL-60", "value": 0.66, "unit": "µM"}, {"measurement": "Activity", "setting": "SMMC-7721 [3]", "value": 78.27, "unit": "%"}, {"measurement": "Activity", "setting": "SMMC-7721 [4]", "value": 12.7, "unit": "%"}, {"measurement": "Activity", "setting": "SMMC-7721 [5]", "value": "Dose-dependent effect"}, {"measurement": "Activity", "setting": "SMMC-7721 [6]", "value": 1.97, "unit": "%"}, {"measurement": "Activity", "setting": "SMMC-7721 [7]", "value": 6.05, "unit": "%"}, {"measurement": "Activity", "setting": "SMMC-7721 [8]", "value": 10.7, "unit": "%"}, {"measurement": "IC50", "setting": "MCF7", "value": 1.7, "unit": "µM"}, {"measurement": "Activity", "setting": "SMMC-7721 [9]", "value": 74.23, "unit": "%"}, {"measurement": "Activity", "setting": "SMMC-7721 [10]", "value": 0.89, "unit": "%"}, {"measurement": "Activity", "setting": "SMMC-7721 [11]", "value": 3.31, "unit": "%"}, {"measurement": "viability at 1.7 µM", "setting": "SMMC-7721 [12]", "value": 43.4, "unit": "%"}, {"measurement": "Activity", "setting": "SMMC-7721 [13]", "value": 31.9, "unit": "%"}, {"measurement": "Activity", "setting": "SMMC-7721 [14]", "value": 6.24, "unit": "%"}, {"measurement": "IC50", "setting": "A549", "value": 0.94, "unit": "µM"}, {"measurement": "IC50", "setting": "SMMC-7721 [15]", "value": 0.85, "unit": "µM"}, {"measurement": "Activity", "setting": "SMMC-7721 [16]", "value": 90.4, "unit": "%"}, {"measurement": "Activity", "setting": "SMMC-7721 [17]", "value": 22.7, "unit": "%"}, {"measurement": "viability at 3.4 µM", "setting": "SMMC-7721 [18]", "value": 2.17, "unit": "%"}, {"measurement": "Activity", "setting": "SMMC-7721 [19]", "value": 0.053, "unit": "%"}, {"measurement": "Activity", "setting": "SMMC-7721 [20]", "value": 19.35, "unit": "%"}, {"measurement": "viability at 0.425 µM", "setting": "SMMC-7721 [21]", "value": 80.9, "unit": "%"}, {"measurement": "Activity", "setting": "SMMC-7721 [22]", "value": 7.83, "unit": "%"}, {"measurement": "Activity", "setting": "SMMC-7721 [23]", "value": 7.41, "unit": "%"}, {"measurement": "viability at 0.85 µM", "setting": "SMMC-7721 [24]", "value": 79.8, "unit": "%"}, {"measurement": "Activity", "setting": "SMMC-7721 [25]", "value": 22.73, "unit": "%"}, {"measurement": "Activity", "setting": "SMMC-7721 [26]", "value": 71.54, "unit": "%"}, {"measurement": "IC50", "setting": "SW480 [27]", "value": 0.25, "unit": "µM"}, {"measurement": "Activity", "setting": "SMMC-7721 [28]", "value": 3.14, "unit": "%"}, {"measurement": "Activity", "setting": "SMMC-7721 [29]", "value": 7.7, "unit": "%"}, {"measurement": "Activity", "setting": "SMMC-7721 [30]", "value": 1.72, "unit": "%"}, {"measurement": "Activity", "setting": "SMMC-7721 [31]", "value": 13.92, "unit": "%"}, {"measurement": "Activity", "setting": "SMMC-7721 [32]", "value": 17.38, "unit": "%"}]}
